Measured values reported in patent US10375956B2, “Herbicidally active 2-(substituted-phenyl)-cyclopentane-1,3-dione compounds and derivatives thereof” (Syngenta Limited, priority 2013, dated 2019).

Key:
Assay type in all cases: in vivo
[1] = system: Zea mays (ZEAMX, maize/corn) cultivar Garland; assay: Biological Example 3 glasshouse assay, post-emergence, various adjuvant systems; settings: 8 g/ha; for percentage control of Zea mays: adjuvant 0.5% v/v TEHP + 1.0% v/v AMS + 12.5% v/v IPA; for percentage control of (phytotoxicity on) Zea mays (ZEAMX, maize, corn): adjuvant 0.5% v/v Hexamoll DINCH + 1.0% v/v AMS + 12.5% v/v IPA
Procedure: (§1) Post-emergence foliar spray application, 200 L/ha, usually one or two replicates for the weeds (depending on application rate), and two replicates for soybean.
(§2) Standard warm conditions (tropical), in glasshouse. Specifically, the glasshouse bay conditions are 24° C./18° C. day/night; 16/8 hours light/dark; 65% humidity.
(§3) The herbicidal application takes place at the following growth stages for plants which include inter alia one or more of the following plants (usually the herbicidal application takes place on at least the following plants: DIGSA, ELEIN, SETFA, ZEAMX, GLXMA Nikko, and GLXMA TMG133, and often also either BRADC or BRAPP):
Zea mays (ZEAMX, maize/corn, e.g. can occur as volunteer corn) cultivar “Garland”—growth stage 12 or 13
(§4) Each test compound is applied with one of the following adjuvant systems (all percentages are final concentrations in the aqueous spray mixture):
(§5) Adjuvant system 2: 0.5% v/v Hexamoll™ DINCH**, 1.0% v/v AMS (ammonium sulphate) and 12.5% v/v IPA (isopropyl alcohol).
(§6) Adjuvant system 3: 0.5% v/v tris-(2-ethylhexyl)phosphate (“TEHP”), 1.0% v/v AMS (ammonium sulphate) and 12.5% v/v IPA (isopropyl alcohol).
(§7) Seeds of the weed (including volunteer) plants, typically including inter alia Digitaria sanguinalis (DIGSA), Eleusine indica (ELEIN), Setaria faberi (SETFA), Zea mays (ZEAMX, corn), and sometimes also [either Brachiaria decumbens (BRADC) or Brachiaria platyphylla (BRAPP)], are sown in seed trays (troughs) containing clay loam soil (pH 7.0, 2.2% organic matter, “Trough Mix A”); and soybean seed is sown in pots containing the same soil with 3 soybean seedlings per pot. The plants are sprayed with the test herbicide when they reach the growth stages mentioned above.
(§8) The test herbicidal solutions are prepared by mixing the appropriate aliquots of the test substance(s) and one of the adjuvant systems indicated above *** in deionised water to give the desired treatment concentration.
(§9) The herbicidal application is made as a foliar spray, using a tracksprayer. Following the herbicidal application, the plants are watered twice per day for the duration of the test.
(§10) A visual assessment of the % herbicidal damage is made 7 and 14 Days After herbicide Application (DAA) (or, in a minority of cases, 7 and 15 DAA), and the results are recorded as % visual herbicidal damage where 0%=no damage to plants and 100%=plant totally killed.
(§11) Compounds A2 and A7 were tested using the 0.5% v/v Hexamoll™ DINCH™+1.0% v/v AMS+12.5% v/v IPA adjuvant system. Compounds A11, A12, A14, A20 and A21 were tested using the 0.5% v/v tris-(2-ethylhexyl)phosphate (“TEHP”)+1.0% v/v AMS+12.5% v/v IPA adjuvant system.
(§12) The percentages of herbicidal damage/plant control, at 14 Days After herbicide Application (DAA) (or, in some cases, at 15 DAA), for the Compounds tested and for some of the plants tested, were in the following percentage ranges. For the tested compounds, the phytotoxicity results shown herein are generally the average of 2 or 3 repetitions (for the grassy weeds including corn) or the average of 2 repetitions (for soybean for most of the tested compounds). However, for Compound A2 on soybean there was 1 repetion only.
Zea mays (ZEAMX, maize, corn) is often present as a “volunteer” weed (“volunteer” corn) in fields where it was planted as a crop in preceding growing season(s) and where the present field crop is not corn.

[2] = system: Digitaria sanguinalis (DIGSA); assay: as above; settings: 8 g/ha; for percentage control of Digitaria sanguinalis: adjuvant 0.5% v/v TEHP + 1.0% v/v AMS + 12.5% v/v IPA; for percentage control of (phytotoxicity on) Digitaria sanguinalis (DIGSA): adjuvant 0.5% v/v Hexamoll DINCH + 1.0% v/v AMS + 12.5% v/v IPA
Procedure: as §1, §2, §3
Digitaria sanguinalis (DIGSA)—growth stage 12 or 13
as §4, §5, §6, §7, §8, §9, §10, §11, §12

Setaria faberi (SETFA) = assay: as above; settings: 8 g/ha; for percentage control of Setaria faberi: adjuvant 0.5% v/v TEHP + 1.0% v/v AMS + 12.5% v/v IPA; for percentage control of (phytotoxicity on) Setaria faberi (SETFA): adjuvant 0.5% v/v Hexamoll DINCH + 1.0% v/v AMS + 12.5% v/v IPA
Procedure: as §1, §2, §3
Setaria faberi (SETFA)—growth stage 12 or 13
as §4, §5, §6, §7, §8, §9, §10, §11, §12

[3] = system: Glycine max (GLXMA, soybean) cultivar TMG133 (Roundup Ready glyphosate-tolerant); assay: as above; settings: crop
Procedure: as §1, §2, §3
Glycine max (GLXMA, soybean) cultivar “TMG133”—which is Roundup Ready™ glyphosate-tolerant soybean cultivar TMG133 (typically available from Monsanto in Brazil)—growth stage: 1st trifoliate.
as §4, §5, §6, §7, §8, §9, §10, §11, §12
Glycine max (GLXMA, soybean) cultivar “TMG133” is Roundup Ready™ glyphosate-tolerant soybean cultivar TMG133, and is typically available from Monsanto in Brazil.

[4] = system: Brachiaria decumbens (BRADC); assay: as above; settings: 8 g/ha; for percentage control of Brachiaria decumbens (BRADC): adjuvant 0.5% v/v TEHP + 1.0% v/v AMS + 12.5% v/v IPA; for percentage control of (phytotoxicity on) Brachiaria decumbens (BRADC): adjuvant 0.5% v/v Hexamoll DINCH + 1.0% v/v AMS + 12.5% v/v IPA
Procedure: as §1, §2, §3
Brachiaria decumbens (BRADC)—growth stage (GS) 12 or 13 (or GS 12)—or, if BRADC is not used, then sometimes Brachiaria platyphylla (BRAPP)—growth stage 12 or 13
as §4, §5, §6, §7, §8, §9, §10
Compounds A2 and A7 were tested using the 0.5% v/v Hexamoll™ DINCH™+1.0% v/v AMS+12.5% v/v IPA adjuvant system. Compounds A11, A12, A14, A20 and A21 were tested using the 0.5% v/v tris-(2-ethylhexyl)phosphate (“TEHP”)+1.0% v/v AMS+12.5% v/v IPA adjuvant system. […]

[5] = system: Glycine max (GLXMA, soybean) cultivar Nikko; assay: as above; settings: crop
Procedure: as §1, §2, §3
Glycine max (GLXMA, soybean) cultivar “Nikko”—growth stage: 1st trifoliate
as §4, §5, §6, §7, §8, §9, §10, §11, §12

Avena fatua (AVEFA) = assay: Test 1 glasshouse assay, post-emergence herbicidal activity; settings: 312 h, post-emergence (Example 1B Table 2), after 13 days, read-out: Percentage phytotoxicity AVEFA
Summary of the method: (§13)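 Post-emergence: plants sprayed after 8 days' growth in a glasshouse (24/16 °C day/night, 14 h light, 65% humidity) with compound in acetone/water 50:50 containing 0.5% Tween 20. Phytotoxicity was scored visually 13 days later as percent damage (0 = none, 100 = total).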

Lolium perenne (LOLPE) = assay: as above; settings: 312 h, post-emergence (Example 1B Table 2), after 13 days, read-out: Percentage phytotoxicity LOLPE
Summary of the method: as §13

[6] = system: Triticum aestivum (TRZAW, winter wheat); assay: as above; settings: 312 h, post-emergence (Example 1B Table 2), after 13 days, crop plant, read-out: Percentage phytotoxicity TRZAW
Summary of the method: as §13

[7] = 120 g/ha, 14 DAA, adjuvant 0.5% v/v TEHP + 1.0% v/v AMS + 12.5% v/v IPA
[8] = 120 g/ha, 15 DAA, adjuvant 0.5% v/v TEHP + 1.0% v/v AMS + 12.5% v/v IPA
[9] = 240 g/ha, 14 or 15 DAA, adjuvant 0.5% v/v TEHP + 1.0% v/v AMS + 12.5% v/v IPA
[10] = 120 g/ha, 14 or 15 DAA, adjuvant 0.5% v/v TEHP + 1.0% v/v AMS + 12.5% v/v IPA
[11] = 120 g/ha, 14 DAA, adjuvant 0.5% v/v Hexamoll DINCH + 1.0% v/v AMS + 12.5% v/v IPA

C#CCC1CC(=O)C(c2c(Cl)cc(-c3ccc(Cl)cc3)cc2OC)C1=O (stereo not drawn) [Compound A11, 2-[2-chloro-4-(4-chlorophenyl)-6-methoxyphenyl]-4-prop-2-ynylcyclopentane-1,3-dione]
percentage control of Zea mays ([1]; 14 DAA): 100%
percentage control of Digitaria sanguinalis ([2]; 14 DAA): 99%
percentage control of Setaria faberi (Setaria faberi (SETFA); 14 DAA): 98%
percentage phytotoxicity on Glycine max cultivar TMG133 [3, 7]: 12.5%
percentage control of Brachiaria decumbens (BRADC) ([4]; 14 DAA): 99%
percentage phytotoxicity on Glycine max cultivar Nikko [5, 7]: 15%

C#CCC1CC(=O)C(c2c(F)cc(-c3ccc(Cl)cc3)cc2OC)C1=O (stereo not drawn) [Compound A14]
pest or weed control at 250 g/ha (Avena fatua (AVEFA)): 100%
pest or weed control at 250 g/ha (Lolium perenne (LOLPE)): 80%
plant injury at 250 g/ha [6]: 70%
percentage control of Zea mays ([1]; 15 DAA): 90%
percentage control of Digitaria sanguinalis ([2]; 15 DAA): 85%
percentage control of Setaria faberi (Setaria faberi (SETFA); 15 DAA): 95%
percentage phytotoxicity on Glycine max cultivar TMG133 [3, 8]: 5%
percentage phytotoxicity on Glycine max cultivar Nikko [5, 8]: 5%

C#CCC1CC(=O)C(c2c(Cl)cc(-c3ccc(F)cc3F)cc2OC)C1=O (stereo not drawn) [Compound A12]
pest or weed control at 62.5 g/ha (Avena fatua (AVEFA)): 60%
pest or weed control at 250 g/ha (Avena fatua (AVEFA)): 100%
pest or weed control at 62.5 g/ha (Lolium perenne (LOLPE)): 70%
pest or weed control at 250 g/ha (Lolium perenne (LOLPE)): 100%
plant injury at 62.5 g/ha [6]: 70%
plant injury at 250 g/ha [6]: 80%
percentage control of Zea mays ([1]; 14 or 15 DAA): 100%
percentage control of Digitaria sanguinalis ([2]; 14 or 15 DAA): 98.5%
percentage control of Setaria faberi (Setaria faberi (SETFA); 14 or 15 DAA): 95%
percentage phytotoxicity on Glycine max cultivar TMG133 [3, 9]: 15%
percentage control of Brachiaria decumbens (BRADC) ([4]; 14 or 15 DAA): 99%
percentage phytotoxicity on Glycine max cultivar Nikko [5, 9]: 15%

C#CCC1CC(=O)C(c2c(F)cc(-c3ccc(F)cc3)cc2OC)C1=O (stereo not drawn) [Compound A20, 2-[2-fluoro-4-(4-fluorophenyl)-6-methoxyphenyl]-4-prop-2-ynylcyclopentane-1,3-dione]
percentage control of Zea mays ([1]; 14 or 15 DAA): 90%
percentage control of Digitaria sanguinalis ([2]; 14 or 15 DAA): 75%
percentage control of Setaria faberi (Setaria faberi (SETFA); 14 or 15 DAA): 90%
percentage phytotoxicity on Glycine max cultivar TMG133 [3, 10]: 10%
percentage phytotoxicity on Glycine max cultivar Nikko [5, 10]: 2%

C#CCC1CC(=O)C(c2c(C)cc(-c3ccc(Cl)cn3)cc2C)C1=O (stereo not drawn) [Compound A2]
pest or weed control at 62.5 g/ha (Avena fatua (AVEFA)): 80%
pest or weed control at 250 g/ha (Avena fatua (AVEFA)): 100%
pest or weed control at 62.5 g/ha (Lolium perenne (LOLPE)): 70%
pest or weed control at 250 g/ha (Lolium perenne (LOLPE)): 100%
plant injury at 62.5 g/ha [6]: 70%
plant injury at 250 g/ha [6]: 90%
percentage control of (phytotoxicity on) Zea mays (ZEAMX, maize, corn) ([1]; 14 DAA): 10%
percentage control of (phytotoxicity on) Digitaria sanguinalis (DIGSA) ([2]; 14 DAA): 90%
percentage control of (phytotoxicity on) Setaria faberi (SETFA) (Setaria faberi (SETFA); 14 DAA): 90%
percentage phytotoxicity on Glycine max cultivar TMG133 [3, 11]: 20%
percentage control of (phytotoxicity on) Brachiaria decumbens (BRADC) ([4]; 14 DAA): 50%
percentage phytotoxicity on Glycine max cultivar Nikko [5, 11]: 10%

C#CCC1CC(=O)C(c2c(F)cc(-c3ccc(F)cc3F)cc2OC)C1=O (stereo not drawn) [Compound A21]
percentage control of Zea mays ([1]; 14 or 15 DAA): 95%
percentage control of Digitaria sanguinalis ([2]; 14 or 15 DAA): 45%
percentage control of Setaria faberi (Setaria faberi (SETFA); 14 or 15 DAA): 85%
percentage phytotoxicity on Glycine max cultivar TMG133 [3, 10]: 5%
percentage phytotoxicity on Glycine max cultivar Nikko [5, 10]: 5%

C#CCC1CC(=O)C(c2c(Cl)cc(-c3ccc(F)cc3)cc2OC)C1=O (stereo not drawn) [Compound A7]
percentage control of (phytotoxicity on) Zea mays (ZEAMX, maize, corn) ([1]; 14 DAA): 100%
percentage control of (phytotoxicity on) Digitaria sanguinalis (DIGSA) ([2]; 14 DAA): 95%
percentage control of (phytotoxicity on) Setaria faberi (SETFA) (Setaria faberi (SETFA); 14 DAA): 91.7%
percentage phytotoxicity on Glycine max cultivar TMG133 [3, 11]: 0%
percentage control of (phytotoxicity on) Brachiaria decumbens (BRADC) ([4]; 14 DAA): 95%
percentage phytotoxicity on Glycine max cultivar Nikko [5, 11]: 2.5%
